Measurements as given in paper PMC5587642, “A Novel Benzocoumarin-Stilbene Hybrid as a DNA ligase I inhibitor with in vitro and in vivo anti-tumor activity in breast cancer models” (Scientific Reports, 2017).
Entries after “also recorded” stand apart in the source; their conditions may differ.

Tests used:
MDA-MB-231 cells [1] = assay: Comet assay; assay type: cell-based, human; details: 12 µM, 48 h
Experimental: Comet assay was performed as described by Olive et al ^3 with slight modifications. MDA-MB-231 cells treated with compound 19 at 12µM for 48h. The harvested cells were mixed with low melting point agarose and pipet the 200μl of cell suspension onto agarose coated surface of frosted slides. The samples were lysed for overnight at 4 °C after the lysis, electrophoresis performed at 40mA for 30mins. The slides neutralized by water, stained with propidium iodide and images were captured by fluorescence microscope. As shown in Supplementary Fig. 71 the treated samples (B) have increased length of DNA tail as compared to control sample (A). This increase in the tail length of DNA occurs due to DNA damage which is induced by compound 19 in MDA-MB-231 cells.

[2] = Stability in simulated gastric and intestinal fluids; assay type: in vitro ADME; details: 2 µg/mL, up to 180 min
Experimental: Simulated gastric fluid (SGF) and simulated intestinal fluid (SIF) were prepared according to USP specifications. The compound 19 was incubated in SGF (0.2 g NaCl, 0.32 g pepsin, 0.7 mL HCl and triple distilled water up to 100 mL, pH 1.2) or SIF (0.680 g […], 0.616 g NaOH, 1 g pancreatin and triple distilled water up to 100 mL, pH 6.8). From the stock solution of compound 19 (1 mg/mL), equivalent concentration of 2 μg/mL of compound 19 were added to 1 mL of preincubated reaction mixture of SGF and SIF, at 37 °C in a shaking water bath in triplicate. 100 μL aliquots of sample was collected at each time point at 0, 5, 15, 30 and 60 min for SGF and 0, 5, 15, 30, 60 90, 120 and 180 min for SIF according to the human gastrointestinal transit time, followed by quenching with acetonitrile, then vortexed and centrifuged at 12000 rpm for 5 min. The supernatant was collected and analyzed by HPLC. The graph was plotted between % drug remaining and incubation time for SGF and SIF.

[3] = system: MCF-10A (Normal breast epithelial cells); assay: MTT cell viability assay; assay type: cell-based, human
Experimental: (§1) Cell viability assay was performed as described previously. Briefly, cells were seeded in 96 well plates and treated with different concentrations of compound 19 for 48 h. After drug treatment, MTT reagent was added in each well of the plate and cell viability was quantified by measuring the absorbance at 590 nm.

MDA-MB-231 cells [4] = assay: MTT cell viability assay; assay type: cell-based, human; details: for IC50: MTT, 48 h
Experimental: as §1

hLigI and DNA complex = biological target: T1, hLigI and DNA complex (Homo sapiens, UniProt P18858); assay: Electrophoretic mobility shift assay (EMSA); assay type: binding; details: 120, 250, 500 µM
T1 construct: made in house
Experimental: EMSA was performed as described previously. Briefly, in 20 μl reaction volume 2 pmol non-ligatable nicked DNA substrate was incubated with DMSO (vehicle control) or with different concentrations (120, 250, 500 µM) of compound 19 incubated with 10 pmol of hligI in ligation buffer. After the incubation, samples were separated by 6.5% native PAGE and bands were detected and imaged by Image Quant LAS 4010 (GE Life sciences).

PLC/PRF/5 (Liver) = assay: MTT cell viability assay; assay type: cell-based
Experimental: as §1

DLD1 (Colon) = assay: MTT cell viability assay; assay type: cell-based
Experimental: as §1

A172 (Brain) = assay: MTT cell viability assay; assay type: cell-based
Experimental: as §1

[5] = system: HEK-293 (Non-cancerous cell); assay: MTT cell viability assay; assay type: cell-based
Experimental: as §1

[6] = system: 4T1 (Mouse Breast Cancer); assay: MTT cell viability assay; assay type: cell-based
Experimental: as §1

A549 (Lung) = assay: MTT cell viability assay; assay type: cell-based
Experimental: as §1

PANC-1 (Pancreas) = assay: MTT cell viability assay; assay type: cell-based
Experimental: as §1

SK-OV-3 (Ovary) = assay: MTT cell viability assay; assay type: cell-based
Experimental: as §1

[7] = system: 4T1 mouse breast cancer induced syngeneic breast tumor; assay: Syngeneic 4T1 orthotopic breast cancer model; assay type: in vivo, BALB/c mice; details: 50 and 100 mg/kg, oral gavage daily for 32 days
Experimental: Animal studies were conducted under the protocol approved by the CSIR-CDRI Institutional Animal Ethics Committee (IAEC approval no. IAEC/2015/03). The in-vivo efficacy studies were performed using BALB/c mice with 4T1 mouse breast cancer induced syngeneic breast tumor model. Mouse tumor model was generated as described by Pulaski et al.[38]. Three different groups of 6 mice each were created for the experiment. Mouse breast cancer cells (4T1) were grown in tissue culture flask upto 70% confluence. Cells were then trypsinized, washed with serum containing medium to quench trypsin activity and then washed and resuspended in PBS. Then cells were injected orthotopically (1 × 10^6 cells in 100 μl PBS) into the mammary fat pad on the right flank of each female BALB/c mouse. Within 2 weeks, palpable tumors were formed and tumor bearing mice were divided randomly into one control and two treatment groups of six mice each. The treatment schedule began on day 16 of the injection and continued for another thirty two days. Compounds were administered by oral gavage once daily at 50 and 100 mg/kg. Tumor volumes were measured every fourth day. The group of vehicle treated animals served as control. The tumor volume, body weight and any behavioral changes in mice were monitored and recorded for the entire duration of the experiment (32 days). Tumor volumes were calculated using the formula (a × b^2)/2, where a, b are two longest perpendicular diameters.

MDA-MB-231 cells [8] = assay: Clonogenic survival assay; assay type: cell-based, human; details: 0.75, 1.5 and 3 µM; 24 and 48 h treatment
Experimental: Clonogenic survival assay was performed as described previously[16] with modifications. MDA-MB-231 cells (100 cells) were seeded in 12 well plates for 24 h. Cells were then treated with different concentrations of compound 19 (0.75, 1.5 and 3 µM) for 24 and 48 h. After drug treatment, culture medium was replaced with fresh medium and cells were cultured for another 10 days. After 10 days, the cells were washed with PBS carefully and stained with a solution containing 6% glutaraldehyde and 0.5% crystal violet.

T1 sequence (P18858 whole entry, one chain of several): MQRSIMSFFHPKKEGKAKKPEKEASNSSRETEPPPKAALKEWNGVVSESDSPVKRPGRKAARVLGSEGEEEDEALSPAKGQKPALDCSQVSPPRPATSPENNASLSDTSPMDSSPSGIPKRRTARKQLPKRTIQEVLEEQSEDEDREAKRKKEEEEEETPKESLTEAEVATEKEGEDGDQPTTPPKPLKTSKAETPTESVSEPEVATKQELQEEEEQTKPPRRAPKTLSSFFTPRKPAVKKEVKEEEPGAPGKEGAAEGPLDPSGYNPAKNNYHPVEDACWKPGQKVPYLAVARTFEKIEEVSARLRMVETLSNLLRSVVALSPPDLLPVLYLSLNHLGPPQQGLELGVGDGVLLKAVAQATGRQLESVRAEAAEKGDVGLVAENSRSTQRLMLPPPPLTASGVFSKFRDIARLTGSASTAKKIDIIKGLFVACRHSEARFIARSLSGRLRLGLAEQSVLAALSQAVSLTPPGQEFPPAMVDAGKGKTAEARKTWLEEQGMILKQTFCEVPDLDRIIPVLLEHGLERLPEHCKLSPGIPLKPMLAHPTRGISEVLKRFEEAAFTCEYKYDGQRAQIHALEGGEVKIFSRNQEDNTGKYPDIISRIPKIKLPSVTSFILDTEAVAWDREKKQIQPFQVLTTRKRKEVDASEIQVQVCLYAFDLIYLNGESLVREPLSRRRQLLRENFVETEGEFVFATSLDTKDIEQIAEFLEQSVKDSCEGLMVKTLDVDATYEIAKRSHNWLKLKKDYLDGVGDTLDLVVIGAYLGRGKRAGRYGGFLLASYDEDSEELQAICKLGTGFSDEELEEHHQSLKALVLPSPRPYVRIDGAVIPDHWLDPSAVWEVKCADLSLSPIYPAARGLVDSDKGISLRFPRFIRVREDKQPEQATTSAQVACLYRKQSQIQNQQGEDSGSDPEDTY

COc1cc(/C=C/c2cc(=O)oc3c2ccc2ccccc23)cc(OC)c1 [Compound 19, (E)-4-(3,5-dimethoxystyryl)-2H-benzo[h]chromen-2-one]
DNA tail length (comet assay) (MDA-MB-231 cells [1]): significant increase in the tail length of treated cells | Stability in SGF (simulated gastric fluid) ([2]; pH 1.2, 37 °C): 83.19 ± 3.22% | Stability in SIF (simulated intestinal fluid) ([2]; pH 6.8, 37 °C): 96.45 ± 0.79% | % Inhibition of cell viability at 10 µM, MCF-10A (Normal breast epithelial cells) [3]: 50.83% | % Inhibition of cell viability at 10 µM, MDA-MB-231 (Breast) (MDA-MB-231 cells [4]; 10 µM): 51.35% | inhibition at 10 µM (MDA-MB-231 cells [4]; Homo sapiens, MDA-MB-231, 48 h, 10 μM, % inhibition, read-out: Antiproliferative activity at 10μM in MDA-MB-231): > 50% | IC50 (MDA-MB-231 cells [4]; Homo sapiens, MDA-MB-231, 48 h): 12.5 ± 2.8 µM | Comparative cell viability versus parent compounds (MDA-MB-231 cells [4]; MDA-MB-231, versus Neo-tanshinlactone and resveratrol): more active as compared to parent compounds | IC50 (MDA-MB-231 cells [4]): 12 µM | hLigI and DNA complex formation (EMSA) (hLigI and DNA complex): decreased the hLigI and DNA complex formation | % Inhibition of cell viability at 10 µM, PLC/PRF/5 (Liver) (PLC/PRF/5 (Liver)): NA (NA= Not active (% Inhibition <30%)) | % Inhibition of cell viability at 10 µM, DLD1 (Colon) (DLD1 (Colon)): 42.64% | % Inhibition of cell viability at 10 µM, A172 (Brain) (A172 (Brain)): 43.71% | % Inhibition of cell viability at 10 µM, HEK-293 (Non-cancerous cell) [5]: 37.83% | % Inhibition of cell viability at 10 µM, 4T1 (Mouse Breast Cancer) ([6]; 10 µM): 53.18% | IC50 ([6]; Mus musculus, MTT, 48 h): 11.6 ± 1.7 µM | % Inhibition of cell viability at 10 µM, A549 (Lung) (A549 (Lung)): NA (NA= Not active (% Inhibition <30%)) | % Inhibition of cell viability at 10 µM, PANC-1 (Pancreas) (PANC-1 (Pancreas)): 50.32% | % Inhibition of cell viability at 10 µM, SK-OV-3 (Ovary) (SK-OV-3 (Ovary)): NA (NA= Not active (% Inhibition <30%)) | Average body weight [7]: no significant change in the average body weight | Breast cancer metastasis to the lungs (4T1 nodules) [7]: marked decrease in breast cancer metastasis to the lungs | Breast tumor growth in-vivo [7]: inhibited breast tumor growth in-vivo in a dose dependent manner; also recorded: arrested tumor progression but could not induce tumor regression | Colony forming ability (MDA-MB-231 cells [8]): inhibited colony forming ability of cells
